Residues, ends and D or L forms follow the SMILES beside them.
Test: Absorption experiment of NLPL in rats (blood LC-MS/MS)
Assay type: in vivo
Conditions: SD rats, intragastric 50 mg/kg bw
Method: In this research, SD rats are used and divided into three groups: a normal group and sturgeon NLPL (SEQ ID NO: 9) groups (50 mg/kg bw of daily dosage). At 12 h before the experiment, the rats are fasted but allowed to drink water. At 15 min, 45 min, 90 min, 180 min and 360 min after intragastric administration, all rats are anesthetized with 3% pentobarbital sodium, subjected to blood sampling through the abdominal aorta, and then euthanized. The polypeptide samples are prepared by solid phase synthesis and desalted.
• (1) The required samples are taken out, thawed, and mixed uniformly by vortex. • (2) 40 μL of sample is taken from the mixed sample, added with 120 μL of methanol, then shaken for 10 min, and centrifuged at low temperature for 10 min. • (3) 70 μL of supernatant is taken out from the centrifuged sample for subsequent determination. 4.2.2.2 Preparation of Standard Solution
Chromatographic separation is performed by using Waters ACQUITY UPLC I-CLASS ultra-high performance liquid chromatography equipment. Specific conditions are as follows: chromatographic column: Waters UPLC HSS T3 (1.8 μm, 2.1 mm×100 mm)—mobile phase: phase A (water, 0.1% formic acid), phase B (methanol)—flow rate: 0.3 mL/min-injection volume: 5.0 μL-column temperature: 40° C.—single sample analysis time: 8 min.
Mass spectrometric detection is performed by using Waters XEVO TQ-XS series four-pole mass spectrometer. Specific conditions are as follows: positive ion source voltage: 3.0 kV-cone well voltage: 30 V-solvent removal temperature: 500° C.—solvent removal gas flow rate: 1000 L/h-cone well gas flow rate: 150 L/h.
Data are expressed in the form of Mean±SD. Data processing and significance analysis are performed by Graphpad. P<0.05 and P<0.01 indicate significant difference and extremely significant difference in data. The target peak area in the polypeptide metabolism data is calculated by using TargetLynx software, and an allowable error of retention time is 15 s. The calculation of concentration is based on a standard curve method to obtain quantitative results.

SMILES: CC(C)C[C@H](NC(=O)[C@@H]1CCCN1C(=O)[C@H](CC(C)C)NC(=O)[C@@H](N)CC(N)=O)C(=O)O [NLPL] (H-NLPL-OH; N-terminus and C-terminus assumed)
- time at which NLPL content in the blood reaches a maximum: ≤ 45 min
- AUC (rat, blood, po, during the measurement time (to 360 min)): 7.14 ng·h/mL
- Cmax (rat, blood, po, read-out: maximum NLPL content in the blood): 1.65 ± 1.75 ng/mL

— patent US12331136B2, “Anti-aging sturgeon roe tetrapeptide and preparation method and application thereof” (Shenzhen Porshealth Bioengineering Co., Ltd., priority 2023, dated 2025)
